# From ChEMBL document CHEMBL1201862, “PubChem BioAssay data set” (2004)
#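 Briefly, cells in 96-well plates were exposed to five compound concentrations for 48 h, and endpoints were estimated by linear interpolation. GI50 is the concentration that inhibits growth by half.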 Active and inactive are the calls of the source. Cut-off read from the data, not from the text of the source: active = GI50 up to about 1.1 µM and inactive = higher.
# What was measured:
# Assay in all cases: NCI-60 cell line screen, 48 h
# RPMI-8226 = system: RPMI-8226
# U-251 = system: U-251
# NCI-H23 = system: NCI-H23
# UACC-257 = system: UACC-257
# UACC-62 = system: UACC-62
# M19-MEL = system: M19-MEL
# HT-29 = system: HT-29
# CCRF-CEM = system: CCRF-CEM
# NCI-H226 = system: NCI-H226
# SK-MEL-5 = system: SK-MEL-5
# TK-10 = system: TK-10
# SW-620 = system: SW-620
# LXFL 529 = system: LXFL 529
# HL-60 = system: HL-60
# HOP-18 = system: HOP-18
# SK-MEL-28 = system: SK-MEL-28
SMILES,GI50 (RPMI-8226),GI50 (U-251),GI50 (NCI-H23),GI50 (UACC-257),GI50 (UACC-62),GI50 (M19-MEL),GI50 (HT-29),GI50 (CCRF-CEM),GI50 (NCI-H226),GI50 (SK-MEL-5),GI50 (TK-10),GI50 (SW-620),GI50 (LXFL 529),GI50 (HL-60),GI50 (HOP-18),GI50 (SK-MEL-28)
COc1c2c(c(O)c3c4c(c(C)cc13)C1OC3(C(OC)OC5CC(C)(O)C(OC6CC(C)(O)C(O)C(C)O6)C(C)O5)OC1C(OC)(O4)C31CO1)C(=O)C(O)CC2OC1CC(C)(O)C(OC(C)=O)C(C)O1 (stereo not drawn),< 0.01 µM (active),< 0.01 µM (active),< 0.01 µM (active),< 0.01 µM (active),< 0.01 µM (active),< 0.01 µM (active),< 0.01 µM (active),< 0.01 µM (active),< 0.01 µM (active),< 0.01 µM (active),< 0.01 µM (active),< 0.01 µM (active),< 0.01 µM (active),< 0.01 µM (active),< 0.01 µM (active),< 0.01 µM (active)
CSC(=N)NNC(=O)CCC(=O)Nc1ccccc1C(F)(F)F,> 100 µM (inactive),> 100 µM (inactive),> 100 µM (inactive),> 100 µM (inactive),> 100 µM (inactive),> 100 µM (inactive),> 100 µM (inactive),> 100 µM (inactive),> 100 µM (inactive),> 100 µM (inactive),> 100 µM (inactive),> 82.2 µM (inactive),> 100 µM (inactive),,> 100 µM (inactive),> 100 µM (inactive)
CCN(CC)CC(=N)N(CC)c1ccccc1,> 100 µM (inactive),> 100 µM (inactive),> 100 µM (inactive),43.6 µM (inactive),> 100 µM (inactive),> 100 µM (inactive),,> 100 µM (inactive),> 100 µM (inactive),> 100 µM (inactive),> 100 µM (inactive),> 100 µM (inactive),> 100 µM (inactive),> 100 µM (inactive),> 100 µM (inactive),> 100 µM (inactive)
O=C(Nc1cc(Cl)c(Cl)cc1Cl)C(=O)C1C=CCS1(=O)=O (stereo not drawn),> 100 µM (inactive),> 100 µM (inactive),> 100 µM (inactive),> 100 µM (inactive),> 100 µM (inactive),> 100 µM (inactive),> 100 µM (inactive),> 100 µM (inactive),87.3 µM (inactive),> 100 µM (inactive),> 100 µM (inactive),> 100 µM (inactive),> 100 µM (inactive),> 100 µM (inactive),> 100 µM (inactive),> 100 µM (inactive)
O=Cc1ccc(CCl)cc1,,18.2 µM (inactive),> 10 µM (inactive),17.7 µM (inactive),12.6 µM (inactive),17.3 µM (inactive),16.8 µM (inactive),12.4 µM (inactive),,16.6 µM (inactive),22.1 µM (inactive),21.5 µM (inactive),16.2 µM (inactive),4.56 µM (inactive),14.4 µM (inactive),17.5 µM (inactive)
NC(=O)c1coc(C2OC(CO)C(O)C2O)n1 (stereo not drawn),> 100 µM (inactive),> 100 µM (inactive),> 100 µM (inactive),,> 100 µM (inactive),> 100 µM (inactive),> 100 µM (inactive),> 100 µM (inactive),> 100 µM (inactive),,> 100 µM (inactive),> 100 µM (inactive),> 100 µM (inactive),> 100 µM (inactive),> 100 µM (inactive),> 100 µM (inactive)
O=C(NC1C(O)C(O)C(CO)OC1n1cc(F)c(=O)[nH]c1=O)OCc1ccccc1 (stereo not drawn),> 100 µM (inactive),> 100 µM (inactive),> 100 µM (inactive),> 100 µM (inactive),,,> 100 µM (inactive),22.2 µM (inactive),> 100 µM (inactive),> 100 µM (inactive),> 100 µM (inactive),> 100 µM (inactive),> 100 µM (inactive),> 100 µM (inactive),> 100 µM (inactive),> 100 µM (inactive)
COc1ccc(OC)c2c3c(ccc12)C(c1ccccc1)OC3=O (stereo not drawn),24.9 µM (inactive),60.3 µM (inactive),17.7 µM (inactive),37.7 µM (inactive),> 100 µM (inactive),45.7 µM (inactive),58.3 µM (inactive),64 µM (inactive),> 100 µM (inactive),47.5 µM (inactive),60.4 µM (inactive),85.1 µM (inactive),43.8 µM (inactive),33.7 µM (inactive),52.1 µM (inactive),52.4 µM (inactive)
COc1ccc(-c2nnc(-c3nsc4ccccc34)o2)cc1,19.3 µM (inactive),79.6 µM (inactive),> 100 µM (inactive),> 100 µM (inactive),> 100 µM (inactive),> 100 µM (inactive),67.6 µM (inactive),,,61.9 µM (inactive),> 100 µM (inactive),> 100 µM (inactive),54.5 µM (inactive),,0.571 µM (active),> 100 µM (inactive)
